pIC50: −log10 of the molar value.
Experiments:
[1] = tested on: phosphorylated myosin regulatory light chain; experiment: Action on amount of phosphorylated myosin regulatory light chain in the cells (Test Example 1); type: cell-based; conditions: Homo sapiens, Neutrophil, 5 min, human neutrophils; reaction with test compound at 25° C. for 5 minutes; read-out: Inhibition of myosin regulatory light chain phosphorylation (IC50: μM)
Protocol: A volume of 50 to 100 ml of peripheral blood collected from healthy volunteers was centrifuged by using Mono-Poly separator solution (Dainippon Pharmaceutical) to prepare a neutrophil containing fraction. The neutrophils were washed with PBS(−) and resuspended in Hanks' Balanced Salt Solution (HBSS+, Gibco) to prepare a cell suspension (8×10^6/ml). The cell suspension was diluted to 5×10^6/ml, introduced into Eppendorf tubes in a volume of 0.4 ml each, then 0.1 ml each of solutions of a test compound at various concentrations were added to the suspension and allowed to react at 25° C. for 5 minutes. […]
The gel after the electrophoresis was blotted on a nitrocellulose membrane (BioRad), blocked with 5% skim milk, and reacted successively with antibodies pLC1 (Sakurada K. et al, Am. J. Physiol., 274, C1563–C1572 (1998)), which specifically recognize the phosphorylated myosin regulatory light chain, and donkey anti-mouse IgG (Chemicon) conjugated with horseradish peroxidase (HRP-labeled). The band of the phosphorylated myosin regulatory light chain was detected on a film by using ECL Plus Kit (Amersham Pharmacia Biotech). This band was subjected to quantification using a densitometer. By using this value, the inhibitory ratio (%) for phosphorylation of the myosin regulatory light chain was calculated by using the following equation. […]

[2] = tested on: thoracic aorta constricted with phenylephrine; experiment: Vasoconstriction inhibitory action (Test Example 2); parameters: species or system Rats (Wistar); conditions: test compound 1 μM; aorta constricted with phenylephrine 1 μM
Description: Rats (Wistar, 11-week old) were bleeded to death and laparotomized to take out the thoracic aorta. That aorta was cut into a ring of a length of about 3 mm in a conventional manner (Asano, T., et al., J. Pharmacol. Exp. Ther., 241, pp. 1033–1040 (1987)) and hung in 10-ml organ bath filled with Krebs-Hensright nutrient solution bubbled with a mixed gas of 95% O2 and 5% CO2. One end of the blood vessel was connected to an isometric transducer (FD Pickup TB-912T, Nihon Kohden) and applied with 2.5 g of resting tension, and constriction and relaxation reactions of the aorta were recorded. The aorta was constricted with phenylephrine (1 μM, Sigma) and then added with a test compound (1 μM), and the vasoconstriction inhibitory action thereof was observed. The vasoconstriction inhibitory actions of the test compounds are shown in Table 6 mentioned below as the relaxation ratios, which are based on the vasoconstriction with phenylephrine immediately before the addition of the test compound taken as 100%.

[3] = tested on: neutrophils; experiment: Neutrophil migration inhibitory action (Test Example 5); type: cell-based; conditions: Homo sapiens, 0.5 h, FMLP 1 μM, Boyden Chamber, 37° C., 30 minutes, read-out: Neutrophil migration inhibition IC50
Protocol: Neutrophils were isolated from 50 to 100 ml of peripheral blood collected from healthy donors by the method described in Test Example 1 to obtain a cell suspension (8×10^6/ml). Subsequently, solutions of a test compound at various concentrations were introduced into wells of a 96-well plate in a volume of 125 μl per well, the cell suspension of an equivalent volume was added to it and the plate was preincubated at room temperature for 5 minutes. During the preincubation, FMLP (1 μM, Sigma) solution was added to the lower chamber to set Boyden Chamber, the preincubated cell suspension was added to the upper chamber in a volume of 200 μl per well, and the cells were allowed to migrate at 37° C. under 5% carbon dioxide for 30 minutes. The filter after the migration was collected, and the non-migrated cells adhered to the surface that faced the upper chamber were carefully wiped off. Then, the migrated cells on the back surface were stained with DifQuick dye solution (International Reagents), washed with water and dried, and then absorbance was measured at 595 nm. The inhibition ratio against migration (%) of a test compound was calculated by using the following equation: Migration inhibition ratio (%)=(1−Absorbance of the group with addition of test compound/Absorbance of the group without addition of test compound)×100 […]

SMILES: CC1CNCCN1S(=O)(=O)c1cccc2cnccc12 (stereo not drawn) [Example H-7, 1-(5-Isoquinolinesulfonyl)-2-methylpiperazine]
- IC50 [1]: 80 µM
- Vasoconstriction inhibitory action (relaxation ratio) (%) [2]: 22.0%
- pIC50 [3]: < 4.40

— patent US7094789B2, “5-substituted isoquinoline derivatives” (Asahi Kasei Pharma Corporation, priority 2002, dated 2006)
